# In patent US20160213007A1, “Methods and Compositions to Elicit Resistance to Fungal Disease in Plants and Plant Parts” (ECOFLORA AGRO S.A.S., priority 2013, published 2016):
# Test system: Botrytis cinerea
# Assay: Growth inhibition of Botrytis cinerea by acetophenones
smiles,measurement,value
O=C(CO)c1ccccc1 [2-hydroxy acetophenone],inhibition of the growth of the fungus Botrytis cinerea,can inhibit the growth
